Test results from article PMC11419154 (bioRxiv, 2024).
“Also recorded” adds a separate entry of the source.

How the values were obtained:
Format in all cases: cell-based, Drosophila melanogaster
[1] = tested on: dTRPA1-C; experiment: Calcium imaging in cIII da neurons expressing dTRPA1-C; conditions: AITC application at time 0 s; n = 12 neurons
[2] = tested on: Balboa (bba RNAi in cIV da neurons); experiment: Calcium imaging in cIV da neurons with bba RNAi; conditions: versus attP2 genetic control; n = 6 neurons
[3] = tested on: dTRPA1-D; experiment: Calcium imaging in cIII da neurons expressing dTRPA1-D; conditions: AITC application at time 0 s; n = 12 neurons
[4] = tested on: Pickpocket (ppk RNAi in cIV da neurons); experiment: Calcium imaging in cIV da neurons with ppk RNAi; conditions: versus attP genetic control; n = 6 neurons
[5] = tested on: class III dendritic arborizing (cIII da) neurons; experiment: Confocal GCaMP6f calcium imaging in larval cIII da neurons; conditions: AITC application at time 0 s; n = 12 neurons

**Q.** For `C=CCN=C=S` [AITC, allyl isothiocyanate], which “Calcium response of cIII da neurons expressing dTRPA1-C, AITC” value [1] is on record?
**A.** renders them responsive to AITC; also recorded: rendered them sensitive to AITC

**Q.** What about the “Calcium response with bba RNAi, AITC” value [2] of the same molecule?
**A.** did not strongly affect their responses to AITC; also recorded: respond to AITC similarly as genetic controls

**Q.** What about the “Calcium response of cIII da neurons expressing dTRPA1-D, AITC” value [3] of the same molecule?
**A.** renders them responsive to AITC; also recorded: rendered them sensitive to AITC

**Q.** What about the “Calcium response with ppk RNAi, AITC” value [4] of the same molecule?
**A.** did not strongly affect their responses to AITC; also recorded: respond to AITC similarly as genetic controls

**Q.** And the “Calcium response of cIII da neurons, AITC” value [5]?
**A.** do not activate strongly in response to AITC
